Measurements published in US8435990B2, “Dihydropyrimidone amides as P2X7 modulators” (Roche Palo Alto LLC, priority 2009, dated 2013).

Target: T1, human P2X7 (Homo sapiens, UniProt Q99572)
T1 construct: 1321N1 cells stably expressing the full length human P2X7 gene (1321N1-hP2X7)
T1 sequence (Q99572 1-595): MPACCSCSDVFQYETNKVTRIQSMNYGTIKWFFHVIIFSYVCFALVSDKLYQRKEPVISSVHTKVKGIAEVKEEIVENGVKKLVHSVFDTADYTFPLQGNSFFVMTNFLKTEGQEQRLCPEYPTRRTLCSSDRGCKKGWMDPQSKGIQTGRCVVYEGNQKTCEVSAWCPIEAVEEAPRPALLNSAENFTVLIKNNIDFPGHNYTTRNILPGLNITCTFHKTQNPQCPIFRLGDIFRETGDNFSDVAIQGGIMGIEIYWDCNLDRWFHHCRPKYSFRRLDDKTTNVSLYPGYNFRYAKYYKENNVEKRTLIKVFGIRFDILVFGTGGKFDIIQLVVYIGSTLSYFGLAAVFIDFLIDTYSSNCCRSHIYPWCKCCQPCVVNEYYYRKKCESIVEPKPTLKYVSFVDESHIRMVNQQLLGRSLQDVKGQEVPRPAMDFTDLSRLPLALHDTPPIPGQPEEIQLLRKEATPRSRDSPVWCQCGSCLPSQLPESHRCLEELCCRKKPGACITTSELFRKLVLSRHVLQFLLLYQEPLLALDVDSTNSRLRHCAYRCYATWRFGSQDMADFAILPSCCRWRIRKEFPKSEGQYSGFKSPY
Experiment: P2X7 modulator pIC50 of Table 1 (assay not given; Intracellular Calcium Flux (FLIPR) Assay assumed)
Format: cell-based
Outline: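 1321N1 cells expressing human P2X7, fluo-3 loaded, pre-equilibrated 20 min at RT with antagonist; 100 μM BzATP agonist added and calcium fluorescence recorded 5 min on FLIPR. BzATP-evoked maximum normalised to 5 μM ionomycin response. HEK293 rat P2X7 cells used 5 μM BzATP.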

Structure (SMILES) | IC50
Cc1cc(F)c(-n2ncccc2=O)cc1NC(=O)C1=CN(C)C(=O)N[C@H]1c1ccc(F)cc1 [Compound 69, (S)-4-(4-Fluoro-phenyl)-1-methyl-2-oxo-1,2,3,4-tetrahydro-pyrimidine-5-carboxylic acid [4-fluoro-2-methyl-5-(6-oxo-6H-pyridazin-1-yl)-phenyl]-amide] | 19.3 nM
Cc1cc(F)c(-c2cccn(C)c2=O)cc1NC(=O)C1=CN(C)C(=O)N[C@H]1c1ccc(F)cc1 [Compound 70, (S)-4-(4-Fluoro-phenyl)-1-methyl-2-oxo-1,2,3,4-tetrahydro-pyrimidine-5-carboxylic acid [4-fluoro-2-methyl-5-(1-methyl-2-oxo-1,2-dihydro-pyridin-3-yl)-phenyl]-amide] | 33.1 nM
Cc1ccc(=O)n(-c2ccc(C)c(NC(=O)C3=CN(C)C(=O)N[C@H]3c3ccc(F)cc3)c2)c1 [Compound 71, (S)-4-(4-Fluoro-phenyl)-1-methyl-2-oxo-1,2,3,4-tetrahydro-pyrimidine-5-carboxylic acid [2-methyl-5-(5-methyl-2-oxo-2H-pyridin-1-yl)-phenyl]-amide] | 43.2 nM
CN1C=C(C(=O)Nc2cc(-c3ccnn(C)c3=O)ccc2F)[C@H](c2ccc(F)cc2)NC1=O [Compound 72, (S)-4-(4-Fluoro-phenyl)-1-methyl-2-oxo-1,2,3,4-tetrahydro-pyrimidine-5-carboxylic acid [2-fluoro-5-(2-methyl-3-oxo-2,3-dihydro-pyridazin-4-yl)-phenyl]-amide] | 15.7 nM

More lines, now with the values ahead:

IC50 | Structure (SMILES)
56.9 nM | Cc1cnn(-c2cc(NC(=O)C3=CN(C)C(=O)N[C@H]3c3ccc(F)cc3)c(C)cc2F)c(=O)c1 [Compound 73, (S)-4-(4-Fluoro-phenyl)-1-methyl-2-oxo-1,2,3,4-tetrahydro-pyrimidine-5-carboxylic acid [4-fluoro-2-methyl-5-(4-methyl-6-oxo-6H-pyridazin-1-yl)-phenyl]-amide]
101 nM | CN1C=C(C(=O)Nc2cc(-n3ncccc3=O)ccc2F)[C@H](c2ccc(F)cc2)NC1=O [Compound 74, (S)-4-(4-Fluoro-phenyl)-1-methyl-2-oxo-1,2,3,4-tetrahydro-pyrimidine-5-carboxylic acid [2-fluoro-5-(6-oxo-6H-pyridazin-1-yl)-phenyl]-amide]
